The source of these data is article PMC12645437, “Orthogonal IMiD-Degron Pairs Induce Selective Protein Degradation in Cells” (ACS Chemical Biology, 2025).

Data set [1] concerns the target T1, ZF-EGFP fusion protein with the HEIP, AEVK, WEIS, or WT ZF degron (Homo sapiens, UniProt Q9UKT9, N149E/Q147A/Q150V/S154K).
T1 construct: The degron spans residues 130–189 of IKZF3; expressed in transfected cells; host or cells: Jurkat, lentivirally transduced, presorted mCherry+
Description: Western blot for ZF-EGFP fusion protein. It counts as cell-based. The settings on record: transduced Jurkat, 18 h. (In general: In western blotting, separated proteins are transferred to a membrane and probed.)

Data set [2] addresses HEIP mutant ZF degron fused to EGFP (Homo sapiens, UniProt Q96SW2+Q9UKT9, N149E/Q147H/Q150I/S154P). Description: Ratiometric EGFP:mCherry flow cytometry degradation assay, 18 h. (In general: Flow cytometry measures light scatter and fluorescence of single cells or particles in a stream.)
Data set [3] has as its target FDIP mutant ZF degron fused to EGFP (Homo sapiens, UniProt Q96SW2+Q9UKT9, N149D/Q147F/Q150I/S154P). Described as above.
Data set [4] has as its target T2, ZF-EGFP fusion protein with the HEIP, AEVK, WEIS, or WT ZF degron (Homo sapiens, UniProt Q9UKT9, N149E/Q147W/Q150I).
T2 construct: The degron spans residues 130–189 of IKZF3; expressed in transfected cells; host or cells: Jurkat, lentivirally transduced, presorted mCherry+
Briefly: Western blot for ZF-EGFP fusion protein. It is filed as cell-based. The settings on record: transduced Jurkat, 18 h.

In data set [5] the target is T3, endogenous GSPT1 (Homo sapiens, UniProt P15170).
T3 construct: endogenous in cells; host or cells: Jurkat transduced with WEIS-EGFP
Description: Western blot for GSPT1 in WEIS-EGFP Jurkat cells. The settings on record: Jurkat transduced with EGFP-WEIS, 18 h. It is filed as cell-based.

Data set [6] concerns Jurkat cells. Briefly: Compound cellular stability HPLC assay. It is filed as in vitro ADME, human. The settings on record: 25 μM. On the procedure:
We hypothesized that the time-dependent variation in DC50 values for compound 23 might result from instability in the cellular environment or export from the cells, leading to a lower cellular concentration after the 24 h period. To assess its cellular stability, we incubated Jurkat cells with 25 μM of compound 23 and analyzed how much compound was recovered from the cells after 0.5, 6, and 24 h (Figure S21) using HPLC analysis. […] The data also indicate that compound 23 is being metabolized, transported out of the cells, or both, over a 24 h period, explaining the increase in DC50 value by this time point (Figure G,H).
Figure S21. Assessing crude cellular stability of compound in 23 in mammalian cells using HPLC.
Jurkat cells were incubated with 25 µM of compound 23 for 0.5 h, 6 h, or 24 h. Cells were washed
with PBS and lysed with MeOH, clarified, and analyzed by HPLC. Compound 23 presence in the
lysate was assessed using HPLC at a UV/Vis absorbance of 190 nm. After 0.5 h we observed 130
incubating at rt for 3 minutes, then reading using an EnVision multimode plate reader
(PerkinElmer). The data have been expressed as % of DMSO control. Three biological repeats
were carried out for this assay, with each biological replicate plate comprising three replicate
Compound Cellular Stability HPLC Assay
Analytical HPLC assay to identify compound 23 in mammalian cell lysate. Jurkat cells were
cultured as described previously and seeded at a density of 2.5 × 10^5 cells per well in a 6-well
plate. Cells were treated with 25 µM of compound 23 or DMSO, keeping the final concentration
either 0.5 h, 6 h, or 24 h. Cells were then pelleted, supernatant removed, and cells were washed
twice with 1 mL of PBS, centrifuging each time at 6,500 rpm on a tabletop centrifuge to avoid
prematurely lysing the cells. PBS was then removed, and cells were lysed with 100 µL of HPLC- […]
0.1% formic acid. […] Samples were read using a Shimadzu system […]
processed using LabSolutions (Version 5.117). Sample components were measured using the UV
absorbance at 190 nm and 254 nm. The reported analysis is the UV absorbance at 190 nm. […]

The target in data set [7] is T4, HA-NanoLuc-WEIS (Homo sapiens, UniProt Q96SW2+Q9UKT9, N149E/Q147W/Q150I).
T4 construct: pLVX-Sprout-IKZF3 130-189aa Q147W N149E Q150I (WEIS); expressed in transfected cells; host or cells: HEK293T, lentiviral transduction, puromycin-selected
Briefly: HA antibody immunoblotting in HEK293T cells. The settings on record: 18 h, Western blot. It counts as cell-based.

In data set [8] the target is T5, HA-CDK9-WEIS (Homo sapiens, UniProt Q96SW2+Q9UKT9, N149E/Q147W/Q150I).
T5 construct: IKZF3 130aa-142aa 170-189aa fused to EGFP; CDK9 (protein of interest, fusion partner N-terminal of the degron); expressed in transfected cells; host or cells: HEK293T, lentivirally transduced (Cilantro2-derived plasmid, Addgene #74450, EGFP replaced by HA-POI-WEIS)
Description: HA antibody immunoblotting in HEK293T cells. It counts as cell-based. The settings on record: 18 h, Western blot.

Data set [9] concerns the target T6, HA-HPRT1-WEIS (Homo sapiens, UniProt Q96SW2+Q9UKT9, N149E/Q147W/Q150I).
T6 construct: IKZF3 130aa-142aa 170-189aa fused to EGFP; HPRT1 (protein of interest, fusion partner N-terminal of the degron); expressed in transfected cells; host or cells: HEK293T, lentivirally transduced (Cilantro2-derived plasmid, Addgene #74450, EGFP replaced by HA-POI-WEIS)
Description: HA antibody immunoblotting in HEK293T cells. It is filed as cell-based. The settings on record: 18 h, Western blot.

The test system of data set [10] is MM.1S cells. Briefly: TMTpro quantitative proteomics, 16 h. The settings on record: 10 μM.
Description: Quantitative proteomics screens were carried out in untransduced Jurkat cells, embryonic stem cells (ESCs), and the multiple myeloma cell line, MM.1S. We used Jurkat cells, as our work up to this point had employed this cell line, and we selected ESCs and MM.1S cells as they express known CRBN neosubstrates, including IKZF1, IKZF3, RAB28, RNF166, SALL4, ZFP91, and ZNF827.
Proteomics - cell lysis and protein digestion
The viability of Jurkat cells was tested after 16-h treatment with corresponding chemicals
viable cells in each condition. Next, ~10^7 cells per condition were collected by centrifugation (1000 rpm), washed twice with ice-cold PBS, and lysed in RIPA buffer [50 mM HEPES pH 7.4, 150 mM NaCl, 1% sodium deoxycholate, 1% NP-40, 0.1% SDS, 10 mM sodium pyrophosphate, 10 mM β-glycerophosphate, 2.5 mM MgCl2, 200 µM TCEP, phosphatase and protease inhibitor cocktail (in-house)], to produce whole cell extracts. Whole-cell extracts were sonicated, and protein concentrations were determined using the Bradford assay. Protein extracts (100 µg) were subjected to disulfide bond reduction with 5 mM TCEP (10 min) and alkylation with 25 mM chloroacetamide (20 min). Methanol–chloroform precipitation was performed prior to protease digestion. […]
Data set [11] has as its target WEIS mutant ZF degron fused to EGFP (Homo sapiens, UniProt Q96SW2+Q9UKT9, N149E/Q147W/Q150I). Briefly: Ratiometric EGFP:mCherry flow cytometry degradation assay, 18 h.

Where “and” joins values, the source holds several entries; their conditions need not be identical. Equal values may be shown once.

Sequence of FDIP mutant ZF degron fused to EGFP (Q9UKT9 130-189 Q147F/N149D/Q150I/S154P): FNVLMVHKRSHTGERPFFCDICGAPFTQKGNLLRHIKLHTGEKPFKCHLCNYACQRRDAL
Sequence of FDIP mutant ZF degron fused to EGFP (Q96SW2 whole entry, the tested form may be a part): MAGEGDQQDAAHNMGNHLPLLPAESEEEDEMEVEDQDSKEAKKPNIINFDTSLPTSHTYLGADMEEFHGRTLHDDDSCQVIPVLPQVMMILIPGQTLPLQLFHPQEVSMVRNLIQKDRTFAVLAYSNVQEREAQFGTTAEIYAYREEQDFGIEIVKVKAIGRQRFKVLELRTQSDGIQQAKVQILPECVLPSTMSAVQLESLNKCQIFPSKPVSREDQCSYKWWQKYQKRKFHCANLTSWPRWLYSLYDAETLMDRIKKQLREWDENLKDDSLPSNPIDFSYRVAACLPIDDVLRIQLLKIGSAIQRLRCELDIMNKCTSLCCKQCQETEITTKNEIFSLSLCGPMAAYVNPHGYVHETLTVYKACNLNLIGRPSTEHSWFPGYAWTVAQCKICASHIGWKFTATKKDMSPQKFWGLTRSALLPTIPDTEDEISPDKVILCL
Sequence of FDIP mutant ZF degron fused to EGFP (Q16531 whole entry partner, the tested form may be a part): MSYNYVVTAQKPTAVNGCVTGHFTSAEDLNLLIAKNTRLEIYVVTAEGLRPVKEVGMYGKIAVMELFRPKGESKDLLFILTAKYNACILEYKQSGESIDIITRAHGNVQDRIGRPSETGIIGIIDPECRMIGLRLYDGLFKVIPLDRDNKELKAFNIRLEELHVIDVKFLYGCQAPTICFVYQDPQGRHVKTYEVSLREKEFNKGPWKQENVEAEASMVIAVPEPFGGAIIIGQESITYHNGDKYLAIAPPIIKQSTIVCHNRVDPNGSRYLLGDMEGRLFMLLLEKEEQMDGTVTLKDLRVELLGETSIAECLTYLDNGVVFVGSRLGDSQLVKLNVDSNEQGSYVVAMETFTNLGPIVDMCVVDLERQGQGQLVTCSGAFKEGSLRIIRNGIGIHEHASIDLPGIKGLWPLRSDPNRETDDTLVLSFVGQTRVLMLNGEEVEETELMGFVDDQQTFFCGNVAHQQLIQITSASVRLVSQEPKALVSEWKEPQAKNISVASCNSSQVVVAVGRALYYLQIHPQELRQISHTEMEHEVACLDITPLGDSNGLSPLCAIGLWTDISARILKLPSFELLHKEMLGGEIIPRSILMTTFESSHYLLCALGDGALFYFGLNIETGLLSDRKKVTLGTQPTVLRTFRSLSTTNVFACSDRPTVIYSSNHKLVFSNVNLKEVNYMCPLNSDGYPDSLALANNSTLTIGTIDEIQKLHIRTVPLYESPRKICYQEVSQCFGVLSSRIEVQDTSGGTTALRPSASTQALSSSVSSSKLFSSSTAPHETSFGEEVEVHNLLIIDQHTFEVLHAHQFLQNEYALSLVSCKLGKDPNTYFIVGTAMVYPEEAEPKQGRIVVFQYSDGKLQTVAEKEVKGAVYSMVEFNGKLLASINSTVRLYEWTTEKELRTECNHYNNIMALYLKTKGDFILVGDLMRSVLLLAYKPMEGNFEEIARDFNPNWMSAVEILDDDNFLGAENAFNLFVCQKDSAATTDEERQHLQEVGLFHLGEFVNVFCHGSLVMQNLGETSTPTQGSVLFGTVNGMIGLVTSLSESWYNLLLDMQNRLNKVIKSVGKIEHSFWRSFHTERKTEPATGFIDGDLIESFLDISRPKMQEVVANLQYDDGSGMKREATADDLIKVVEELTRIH
Sequence of WEIS mutant ZF degron fused to EGFP (Q9UKT9 130-189 Q147W/N149E/Q150I): as the sequence (Q9UKT9 130-189 Q147F/N149D/Q150I/S154P) above, with F18W, D20E, P25S counted along it
Sequence of WEIS mutant ZF degron fused to EGFP (Q96SW2 whole entry, the tested form may be a part): as the sequence (Q96SW2 whole entry, the tested form may be a part) above
Sequence of WEIS mutant ZF degron fused to EGFP (Q16531 whole entry partner, the tested form may be a part): as the sequence (Q16531 whole entry partner, the tested form may be a part) above
Sequence of HEIP mutant ZF degron fused to EGFP (Q9UKT9 130-189 Q147H/N149E/Q150I/S154P): as the sequence (Q9UKT9 130-189 Q147F/N149D/Q150I/S154P) above, with F18H, D20E counted along it
Sequence of HEIP mutant ZF degron fused to EGFP (Q96SW2 whole entry, the tested form may be a part): as the sequence (Q96SW2 whole entry, the tested form may be a part) above
Sequence of HEIP mutant ZF degron fused to EGFP (Q16531 whole entry partner, the tested form may be a part): as the sequence (Q16531 whole entry partner, the tested form may be a part) above

Take `CC(C)(C)c1ccc2c(c1)C(=O)N(C1CCC(=O)NC1=O)C2=O` (stereo not shown) [Compound 19]: in data set [1], the “degradation of EGFP tagged with AEVK degron (Western blot)” value is “complete degradation”. For the same compound, the “Selectivity (WT/mutant)” value in [2] (DC50(WT)/DC50(HEIP)) was 25 and 25.1; in data set [3] (DC50(WT)/DC50(FDIP)), 12.0. For the same compound, the DC50 was determined as 30.2 nM in data set [2] (HEIP, Jurkat, 18 h) and 63.1 nM in data set [3] (FDIP, Jurkat, 18 h). The pDC50 in data set [2] (HEIP, Jurkat, 18 h) is given as 7.52; in data set [3] (FDIP, Jurkat, 18 h), 7.20.

On to `CN1CCN(c2ccc3c(c2)C(=O)N(C2CCC(=O)NC2=O)C3=O)CC1` (stereo not shown) [Compound 23], for which the “degradation of EGFP tagged with WEIS degron (Western blot)” value in [4] is “complete degradation”. Further, the “degradation of endogenous GSPT1 (Western blot)” value in [5] is listed as “showed no degradation”. In addition, the “compound recovered from cells (HPLC)” value in data set [6] (after 0.5 h) was 130 nM; in data set [6] (after 6 h) it was 30 nM; in [6] (after 24 h), “almost no compound remaining”. Moreover, the results for the D max in data set [7], in data set [8] and in [9] were 89%, 70% and 49%, respectively. Moreover, the DC50 in [7] was 47.8 nM; in data set [8], 299 nM; in data set [9], 67.1 nM; in data set [11] (WEIS, Jurkat, 18 h), 18.2 nM. Further, in [10], the “proteins degraded (quantitative proteomics)” value is listed as “did not significantly (Welch’s t test) induce degradation of any protein”. Moreover, the “Selectivity (WT/mutant)” value in data set [11] (DC50(WT)/DC50(WEIS)) is reported as 35. This compound showed a pDC50 in data set [11] (WEIS, Jurkat, 18 h) of 7.74.
